Measurements from US8445505B2 (IRM LLC, priority 2008, dated 2013).

Biological target: IGF1R Ba/F3 (Homo sapiens, UniProt P08069)
Experiment: Ba/F3 Cell Viability Inhibition Assay (Tel-TK transformed Ba/F3 lines)
Type: cell-based, murine
Design: the printed alternative
Settings: Tel-TK (IGF1R) transformed Ba/F3 cells, 48 hours incubation, cell viability (Britelite luminescence)
Text: Ba/F3 is a murine IL-3-dependent pro-B lymphoma cell line. Parental Ba/F3 cells are used to generate a panel of sublines whose proliferation and survival is rendered IL-3-independent by stable transduction with individual tyrosine kinases activated by fusion with the amino-terminal portion of TEL (amino acid 1-375) or BCR. In order to generate Ba/F3 cell lines transformed by Tel-Tyrosine Kinase (TK) fusions, parental Ba/F3 cells are infected with a retrovirus harboring each TEL-fusion kinase and subjected to puromycin selection and IL-3 withdrawal to obtain IL-3-independent, transformed Ba/F3 cells.
Each transformed Ba/F3 cells are cultured in RPMI-1640 media (Gibco Cat #11875093, Carlsbad, Calif.) supplemented with 10% FBS (Hyclone Cat #SV30014.03, Logan, Utah), 4.5 g/L glucose (Sigma #G5400, St.Louis, Mo.), 1.5 g/L sodium bicarbonate (Biowhittaker #17-613E, Walkersville, Md.) and Pen/Strep (Gibco #10378-016, Carlsbad, Calif.). Cells are splitted twice weekly.
The potency of test compounds against various Tel-TK transformed Ba/F3 lines is determined as follows. Exponentially growing BaF3 Tel-TK cells are diluted in fresh medium to 75,000 cells/mL and seeded into 384-well plates (3750 cells/well) at 50 μL/well using a gill liquid dispenser (BioTek, Winooski, Vt., USA). Duplicate plates are run for each cell line. Test and control compounds are serially diluted with DMSO and arrayed in a polypropylene 384-well plate. 50 nL of compound is transferred into the assay plates using a pin-transfer device, and the plates are incubated at 37° C. (5% CO2) for 48 hours. 25 μL Britelite (Perkin Elmer) is added and luminescence is quantified using Analyst GT (Molecular Devices). Custom curve-fitting software is used to produce a logistic fit of percent cell viability as a function of the logarithm of inhibitor concentration. The IC50 is interpolated as the concentration of compound needed to reduce cell viability to 50% of a DMSO control. Parental Ba/F3 cells that are maintained and cultured in presence of IL-3 (1 ng/ml in final) are diluted in fresh medium containing IL-3 (1 ng/ml in final) to 75,000 cells/mL following the same procedure as described above.

Sequence of IGF1R Ba/F3 (P08069 999-1274 limits assumed): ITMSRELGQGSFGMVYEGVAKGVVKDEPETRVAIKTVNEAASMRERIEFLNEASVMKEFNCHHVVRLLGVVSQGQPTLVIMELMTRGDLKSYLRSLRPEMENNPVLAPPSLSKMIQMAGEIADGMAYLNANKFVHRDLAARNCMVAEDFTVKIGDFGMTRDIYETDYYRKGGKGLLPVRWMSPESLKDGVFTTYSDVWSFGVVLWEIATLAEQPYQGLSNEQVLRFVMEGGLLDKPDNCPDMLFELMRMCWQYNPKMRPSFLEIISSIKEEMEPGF

**Q.** With `Cc1cc(Nc2nc(Nc3cc(C)c([C@H]4CC[C@@H](O)CC4)cc3C)ncc2C(F)(F)F)n[nH]1` [Compound 42, cis-4-(2,5-dimethyl-4-(4-(5-methyl-1H-pyrazol-3-ylamino)-5-(trifluoromethyl)pyrimidin-2-ylamino)phenyl)cyclohexanol] as the molecule, how does the IC50 read?
**A.** 53 nM

**Q.** For `Cc1cc(Nc2nc(Nc3cc(C)c([C@H]4CC[C@@H](N5CCCCC5)CC4)cc3C)ncc2Cl)n[nH]1` [Compound 43, Cis-5-chloro-N2-(2,5-dimethyl-4-(4-(pipcridin-1-yl)cyclohexyl)phenyl)-N4-(5-methyl-1H-pyrazol-3-yl)pyrimidine-2,4-diamine], which IC50 is on record?
**A.** 8 nM

**Q.** With `Cc1cc(Nc2nc(Nc3cc(C)c([C@H]4CC[C@H](N5CCCCC5)CC4)cc3C)ncc2Cl)n[nH]1` [Compound 44, Trans-5-chloro-N2-(2,5-dimethyl-4-(4-(piperidin-1-yl)cyclohexyl)phenyl)-N4-(5-methyl-1H-pyrazol-3-yl)pyrimidine-2,4-diamine] as the molecule, how does the IC50 read?
**A.** 7 nM

**Q.** Which IC50 does the source give for `Cc1cc(Nc2nc(Nc3cc(C)c([C@H]4CC[C@H](O)CC4)cc3C)ncc2Cl)n[nH]1` [Compound 45, trans-4-(4-(5-chloro-4-(5-rnethyl-1H-pyrazol-3-ylamino)pyrimidin-2-ylamino)-2,5-dimethylphenyl)cyclohexanol] here?
**A.** 14 nM

**Q.** Which IC50 does the source give for `Cc1cc(Nc2nc(Nc3cc(C)c([C@H]4CC[C@H](NC5CC5)CC4)cc3C)ncc2Cl)n[nH]1` [Compound 46, Trans-5-chloro-N2-(4-(4-(cyclopropylamino)cyclohexyl)-2,5-dimethylphenyl)-N4-(5-methyl-1H-pyrazol-3-yl)pyrimidine-2,4-diamine] here?
**A.** 16 nM

**Q.** How did the IC50 turn out when `Cc1cc(Nc2nc(Nc3cc(C)c([C@H]4CC[C@@H](NC5CC5)CC4)cc3C)ncc2Cl)n[nH]1` [Compound 47, Cis-5-chloro-N2-(4-(4-(cyclopropylamino)cyclohexyl)-2,5-dimethylphenyl)-N4-(5-methyl-1H-pyrazol-3-yl)pyrimidine-2,4-diamine] was run?
**A.** 17 nM

**Q.** Which IC50 does the source give for `Cc1cc(Nc2nc(Nc3cc(C)c([C@H]4CC[C@@H](N5CCCCC5)CC4)cc3F)ncc2Cl)n[nH]1` [Compound 48, Cis-5-chloro-N2-(2-fluoro-5-methyl-4-(4-(piperidin-1-yl)cyclohexyl)phenyl)-N4-(5-methyl-1H-pyrazol-3-yl)pyrimidine-2,4-diamine] here?
**A.** 21 nM

**Q.** How did the IC50 turn out when `Cc1cc(Nc2nc(Nc3cc(C)c([C@H]4CC[C@H](N5CCCCC5)CC4)cc3F)ncc2Cl)n[nH]1` [Compound 49, Trans-5-chloro-N2-(2-fluoro-5-methyl-4-(4-(piperidin-1-yl)cyclohexyl)phenyl)-N4-(5-methyl-1H-pyrazol-3-yl)pyrimidine-2,4-diamine] was run?
**A.** 40 nM

**Q.** `Cc1cc(Nc2nc(Nc3cc(C)c([C@H]4CC[C@H](N5CCOCC5)CC4)cc3F)ncc2Cl)n[nH]1` [Compound 50, Trans-5-chloro-N2-(2-fluoro-5-methyl-4-(4-morpholinocyclohexyl)phenyl)-N4-(5-methyl-1H-pyrazol-3-yl)pyrimidine-2,4-diamine] was tested. Which IC50 did it give?
**A.** 31 nM

**Q.** How did the IC50 turn out when `Cc1cc(Nc2nc(Nc3cc(C)c([C@H]4CC[C@@H](N5CCOCC5)CC4)cc3F)ncc2Cl)n[nH]1` [Compound 51, Cis-5-chloro-N2-(2-fluoro-5-methyl-4-(4-morpholinocyclohexyl)phenyl)-N4-(5-methyl-1H-pyrazol-3-yl)pyrimidine-2,4-diamine] was run?
**A.** 400 nM

**Q.** Which IC50 does the source give for `Cc1cc(Nc2nc(Nc3cc(C)c([C@H]4CC[C@@H](N5CCN(C)CC5)CC4)cc3F)ncc2Cl)n[nH]1` [Compound 52, Cis-5-chloro-N2-(2-fluoro-5-methyl-4-(4-(4-methylpiperazin-1-yl)cyclohexyl)phenyl)-N4-(5-methyl-1H-pyrazol-3-yl)pyrimidine-2,4-diamine] here?
**A.** 24 nM

**Q.** Which IC50 does the source give for `Cc1cc(Nc2nc(Nc3cc(C)c([C@H]4CC[C@H](N5CCN(C)CC5)CC4)cc3F)ncc2Cl)[nH]n1` [Compound 53, Trans-5-chloro-N2-(2-fluoro-5-methyl-4-(4-(4-methylpiperazin-1-yl)cyclohexyl)phenyl)-N4-(5-methyl-1H-pyrazol-3-yl)pyrimidine-2,4-diamine] here?
**A.** 25 nM

**Q.** `Cc1cc(Nc2nc(Nc3cc(C)c([C@H]4CC[C@@H](N5CC[C@H](O)C5)CC4)cc3F)ncc2Cl)n[nH]1` [Compound 54, (S)-1-((Cis)-4-(4-(5-chloro-4-(5-methyl-1H-pyrazol-3-ylamino)pyrimidin-2-ylamino)-5-fluoro-2-methylphenyl)cyclohexyl)pyrrolidin-3-ol] was tested. Which IC50 did it give?
**A.** 16 nM

**Q.** How did the IC50 turn out when `Cc1cc(Nc2nc(Nc3cc(C)c([C@H]4CC[C@H](N5CC[C@H](O)C5)CC4)cc3F)ncc2Cl)n[nH]1` [Compound 55, (S)-1-((Trans)-4-(4-(5-chloro-4-(5-methyl-1H-pyrazol-3-ylamino)pyrimidin-2-ylamino)-5-fluoro-2-methylphenyl)cyclohexyl)pyrrolidin-3-ol] was run?
**A.** 32 nM

**Q.** How did the IC50 turn out when `CCN(CC)[C@H]1CC[C@@H](c2cc(F)c(Nc3ncc(Cl)c(Nc4cc(C)[nH]n4)n3)cc2C)CC1` [Compound 56, 5-chloro-N2-(4-((cis)-4-(diethylamino)cyclohexyl)-2-fluoro-5-methylphenyl)-N4-(5-methyl-1H-pyrazol-3-yl)pyrimidine-2,4-diamine] was run?
**A.** 25 nM

**Q.** How did the IC50 turn out when `CCN(CC)[C@H]1CC[C@H](c2cc(F)c(Nc3ncc(Cl)c(Nc4cc(C)[nH]n4)n3)cc2C)CC1` [Compound 57, 5-chloro-N2-(4-((trans)-4-(diethylamino)cyclohexyl)-2-fluoro-5-methylphenyl)-N4-(5-methyl-1H-pyrazol-3-yl)pyrimidine-2,4-diamine] was run?
**A.** 31 nM

**Q.** For `Cc1cc(Nc2nc(Nc3cc(C)c([C@H]4CC[C@@H](N5CCNCC5)CC4)cc3F)ncc2Cl)n[nH]1` [Compound 58, 5-chloro-N2-(2-fluoro-5-methyl-4-((cis)-4-(piperazin-1-yl)cyclohexyl)phenyl)-N4-(5-methyl-1H-pyrazol-3-yl)pyrimidine-2,4-diamine], which IC50 is on record?
**A.** 17 nM

**Q.** `Cc1cc(Nc2nc(Nc3cc(C)c([C@H]4CC[C@H](N5CCNCC5)CC4)cc3F)ncc2Cl)n[nH]1` [Compound 59, 5-chloro-N2-(2-fluoro-5-methyl-4-((trans)-4-(piperazin-1-yl)cyclohexyl)phenyl)-N4-(5-methyl-1H-pyrazol-3-yl)pyrimidine-2,4-diamine] was tested. Which IC50 did it give?
**A.** 39 nM

**Q.** With `Cc1cc(Nc2nc(Nc3cc(C)c([C@H]4CC[C@@H](N5CCCCC5)CC4)cc3C)ncc2C(F)(F)F)n[nH]1` [Compound 60, N2-(2,5-dimethyl-4-((cis)-4-(piperidin-1-yl)cyclohexyl)phenyl)-N4-(5-methyl-1H-pyrazol-3-yl)-5-(trifluoromethyl)pyrimidine-2,4-diamine] as the molecule, how does the IC50 read?
**A.** 4 nM

**Q.** For `Cc1cc(Nc2nc(Nc3cc(C)c([C@H]4CC[C@H](N5CCCCC5)CC4)cc3C)ncc2C(F)(F)F)n[nH]1` [Compound 61, N2-(2,5-dimethyl-4-((trans)-4-(piperidin-1-yl)cyclohexyl)phenyl)-N4-(5-methyl-1H-pyrazol-3-yl)-5-(trifluoromethyl)pyrimidine-2,4-diamine], which IC50 is on record?
**A.** 3 nM

**Q.** For `Cc1cc(Nc2nc(Nc3cc(C)c([C@H]4CC[C@@H](N5CCCCC5)CC4)cc3F)ncc2C(F)(F)F)n[nH]1` [Compound 62, N^2-(2-fluoro-5-methyl-4-(cis-4-(piperidin-1-yl)cyclohexyl)phenyl)-N^4-(5-methyl-1H-pyrazol-3-yl)-5-(trifluoromethyl)pyrimidine-2,4-diamine], which IC50 is on record?
**A.** 18 nM

**Q.** `Cc1cc(Nc2nc(Nc3cc(C)c([C@H]4CC[C@H](N5CCCCC5)CC4)cc3F)ncc2C(F)(F)F)n[nH]1` [Compound 63, N^2-(2-fluoro-5-methyl-4-(trans-4-(piperidin-1-yl)cyclohexyl)phenyl)-N^4-(5-methyl-1H-pyrazol-3-yl)-5-(trifluoromethyl)pyrimidine-2,4-diamine] was tested. Which IC50 did it give?
**A.** 16 nM

**Q.** With `Cc1cc(Nc2nc(Nc3cc(C)c([C@H]4CC[C@@H](N5CCOCC5)CC4)cc3F)ncc2C(F)(F)F)n[nH]1` [Compound 64, N2-(2-fluoro-5-methyl-4-((cis)-4-morpholinocyclohexyl)phenyl)-N4-(5-methyl-1H-pyrazol-3-yl)-5-(trifluoromethyl)pyrimidine-2,4-diamine] as the molecule, how does the IC50 read?
**A.** 50 nM

**Q.** For `Cc1cc(Nc2nc(Nc3cc(C)c([C@H]4CC[C@H](N5CCOCC5)CC4)cc3F)ncc2C(F)(F)F)n[nH]1` [Compound 65, N2-(2-fluoro-5-methyl-4-((trans)-4-morpholinocyclohexyl)phenyl)-N4-(5-methyl-1H-pyrazol-3-yl)-5-(trifluoromethyl)pyrimidine-2,4-diamine], which IC50 is on record?
**A.** 32 nM
